Test results as given in DBAASP.
Converted amounts (≈) assume the structure as drawn.

Experiments:
Test in all cases: ≥ marks a high value that may be exact or a test limit, other limits are often not marked, values filed in µg/mL are converted to µM
[1] = test system: Escherichia coli ATCC 25922
[2] = test system: Staphylococcus aureus ATCC 29213
[3] = test system: Pseudomonas aeruginosa ATCC 27853
[4] = test system: Escherichia coli
[5] = test system: Bacillus cereus
[6] = test system: Staphylococcus epidermidis ATCC 12228
[7] = test system: Pseudomonas aeruginosa
[8] = test system: Candida albicans ATCC 2002

**Q.** Which results are given for `CC[C@H](C)[C@H](NC(=O)[C@H](CCCN=C(N)N)NC(=O)[C@H](CCC(N)=O)NC(=O)[C@H](CCC(N)=O)NC(=O)[C@@H](NC(=O)[C@H](CCCN=C(N)N)NC(=O)[C@H](CCCCN)NC(=O)[C@@H](N)Cc1ccccc1)[C@@H](C)CC)C(=O)N[C@@H](CCCCN)C(=O)N[C@@H](CC(=O)O)C(=O)N[C@@H](Cc1ccccc1)C(=O)N[C@@H](CC(C)C)C(=O)N[C@@H](CCCN=C(N)N)C(=O)O` [FKRIQQRIKDFLR]?
**A.** MIC [1]: 5 µM (≈ 8.74 µg/mL); MIC [2]: > 40 µM

**Q.** `CC[C@H](C)[C@H](NC(=O)[C@H](CCSC)NC(=O)[C@H](C)NC(=O)[C@@H]1CCCN1C(=O)[C@@H](NC(=O)[C@@H](NC(=O)[C@H](CCCCN)NC(=O)[C@@H](NC(=O)[C@H](CC(C)C)NC(=O)CNC(=O)CNC(=O)[C@H](CC(C)C)NC(=O)[C@@H](N)Cc1ccccc1)[C@@H](C)CC)[C@@H](C)CC)C(C)C)C(=O)N[C@@H](CS)C(=O)N[C@@H](C)C(=O)N[C@H](C(=O)N[C@H](C(=O)N[C@@H](CCCCN)C(=O)N[C@@H](CCCCN)C(=O)O)[C@@H](C)O)C(C)C` [FLGGLIKIVPAMICAVTKK] was tested. Which MIC [1] did it give?
**A.** 128 µM (≈ 256 µg/mL)

**Q.** What about the MIC [3] of the same compound?
**A.** 63.9 µM (≈ 128 µg/mL)

**Q.** What about the MIC [2] of the same compound?
**A.** 63.9 µM (≈ 128 µg/mL)

**Q.** Which results are given for `CC[C@H](C)[C@H](NC(=O)[C@H](CCCN=C(N)N)NC(=O)CNC(=O)[C@@H](NC(=O)[C@H](Cc1ccccc1)NC(=O)[C@@H]1CCCN1C(=O)[C@H](CC(C)C)NC(=O)[C@@H](N)Cc1ccccc1)C(C)C)C(=O)N[C@@H](C)C(=O)N[C@@H](CO)C(=O)N[C@@H](CCCCN)C(=O)N[C@H](C(=O)N[C@H](C(=O)N1CCC[C@H]1C(=O)N[C@@H](CO)C(=O)N[C@H](C(=O)N[C@H](C(=O)NCC(=O)N[C@@H](CCCCN)C(=O)N[C@H](C(=O)O)C(C)C)[C@@H](C)CC)C(C)C)C(C)C)C(C)C` [FLPFVGRIASKVVPSVIGKV]?
**A.** MIC [4]: > 121 µM; MIC [5]: ≥ 121 µM

**Q.** How did the MIC [6] turn out when `CC[C@H](C)[C@H](NC(=O)CN)C(=O)N[C@@H](CCCCN)C(=O)N[C@@H](CCCCN)C(=O)N[C@@H](Cc1c[nH]c2ccccc12)C(=O)N[C@@H](CC(C)C)C(=O)N[C@@H](Cc1cnc[nH]1)C(=O)N[C@@H](CO)C(=O)N1CCC[C@H]1C(=O)N[C@@H](CCCCN)C(=O)N[C@@H](CCCCN)C(=O)N[C@@H](Cc1ccccc1)C(=O)NCC(=O)N[C@@H](CCCCN)C(=O)N[C@@H](CCCCN)C(=O)N[C@@H](Cc1ccccc1)C(=O)N1CCC[C@H]1C(=O)N[C@@H](CCCCN)C(=O)N[C@@H](CCCCN)C(=O)N[C@H](C(=O)N[C@@H](CCSC)C(=O)N[C@@H](CC(N)=O)C(=O)N[C@@H](CO)C(N)=O)[C@@H](C)CC` [GIKKWLHSPKKFGKKFPKKIMNS] was run?
**A.** 10 µM (≈ 27.3 µg/mL)

**Q.** And the MIC [1]?
**A.** > 80 µM

**Q.** With `CC[C@H](C)[C@H](NC(=O)CN)C(=O)N[C@@H](CCCCN)C(=O)N[C@@H](CCCCN)C(=O)N[C@@H](Cc1c[nH]c2ccccc12)C(=O)N1CCC[C@H]1C(=O)N[C@@H](Cc1cnc[nH]1)C(=O)N[C@@H](CCCCN)C(=O)N1CCC[C@H]1C(=O)N[C@@H](CCCCN)C(=O)N[C@@H](CCCCN)C(=O)N[C@@H](Cc1ccccc1)C(=O)NCC(=O)N[C@@H](CCCCN)C(=O)N[C@@H](CCCCN)C(=O)N[C@@H](Cc1ccccc1)C(=O)N[C@H](C(=O)N[C@@H](CCCCN)C(=O)N[C@@H](CCCCN)C(=O)N[C@H](C(=O)N[C@@H](CCCCN)C(=O)N[C@@H](CC(N)=O)C(=O)N[C@@H](CO)C(N)=O)[C@@H](C)CC)C(C)C` [GIKKWPHKPKKFGKKFVKKIKNS] as the compound, how does the MIC [6] read?
**A.** 10 µM (≈ 27.5 µg/mL)

**Q.** What about the MIC [1] of the same compound?
**A.** 40 µM (≈ 110 µg/mL)

**Q.** Which results are given for `CC[C@H](C)[C@H](NC(=O)CN)C(=O)N[C@@H](CCCCN)C(=O)N[C@@H](CCCCN)C(=O)N[C@@H](Cc1c[nH]c2ccccc12)C(=O)N1CCC[C@H]1C(=O)N[C@@H](Cc1cnc[nH]1)C(=O)N[C@@H](CO)C(=O)N1CCC[C@H]1C(=O)N[C@@H](CCCCN)C(=O)N[C@@H](CCCCN)C(=O)N[C@@H](Cc1ccccc1)C(=O)NCC(=O)N[C@@H](CCCCN)C(=O)N[C@@H](CCCCN)C(=O)N[C@@H](Cc1ccccc1)C(=O)N[C@H](C(=O)N[C@@H](CCCCN)C(=O)N[C@@H](CCCCN)C(=O)N[C@H](C(=O)N[C@@H](CCSC)C(=O)N[C@@H](CC(N)=O)C(=O)N[C@@H](CO)C(N)=O)[C@@H](C)CC)C(C)C` [GIKKWPHSPKKFGKKFVKKIMNS]?
**A.** MIC [6]: 10 µM (≈ 27.1 µg/mL); MIC [1]: 10 µM (≈ 27.1 µg/mL)

**Q.** With `CC[C@H](C)[C@H](NC(=O)[C@H](CO)NC(=O)[C@H](CCCCN)NC(=O)[C@@H](NC(=O)[C@@H](NC(=O)[C@@H](NC(=O)[C@@H](NC(=O)[C@H](CCCCN)NC(=O)[C@@H](NC(=O)[C@@H](NC(=O)[C@@H](N)CCCCN)[C@@H](C)CC)C(C)C)C(C)C)[C@@H](C)CC)[C@@H](C)O)C(C)C)C(=O)N[C@@H](CO)C(=O)N1CCC[C@H]1C(=O)N[C@@H](C)C(=O)N[C@@H](CO)C(=O)N[C@@H](CC(C)C)C(=O)N[C@H](C(=O)N1CCC[C@H]1C(=O)N[C@H](C(=O)N[C@@H](Cc1ccccc1)C(=O)O)C(C)C)C(C)C` [KIVKVITVKSISPASLVPVF] as the compound, how does the MIC [4] read?
**A.** > 60.2 µM

**Q.** What about the MIC [5] of the same compound?
**A.** ≥ 60.2 µM

**Q.** With `CC(=O)N[C@@H](CCCCN)C(=O)N[C@@H](CC(C)C)C(=O)N[C@@H](CC(C)C)C(=O)N[C@@H](CCCCN)C(=O)N[C@@H](CC(C)C)C(=O)N[C@@H](CC(C)C)C(=O)N[C@@H](CCCCN)C(=O)N[C@@H](CCCCN)C(=O)N[C@@H](CC(C)C)C(=O)N[C@@H](CC(C)C)C(=O)N[C@@H](CCCCN)C(=O)N[C@@H](CC(C)C)C(=O)N1CCC[C@H]1C(=O)N[C@@H](CCCCN)C(N)=O` [KLLKLLKKLLKLPK] as the compound, how does the MIC [1] read?
**A.** 14.1 µM (≈ 24.3 µg/mL)

**Q.** What about the MIC [2] of the same compound?
**A.** 10 µM (≈ 17.2 µg/mL)

**Q.** `CC[C@H](C)[C@H](NC(=O)[C@H](Cc1ccccc1)NC(=O)[C@H](CO)NC(=O)[C@H](CC(N)=O)NC(=O)[C@H](Cc1c[nH]c2ccccc12)NC(=O)[C@@H](N)CCCCN)C(=O)N[C@@H](CCCCN)C(=O)N[C@@H](CCCCN)C(=O)N[C@@H](CC(C)C)C(=O)N[C@H](C(=O)N[C@@H](CO)C(=O)N[C@@H](CCCCN)C(=O)N[C@@H](Cc1ccccc1)C(=O)N[C@@H](CC(C)C)C(=O)N[C@@H](Cc1cnc[nH]1)C(=O)N[C@@H](CO)C(=O)N[C@@H](C)C(=O)N[C@@H](CCCCN)C(=O)N[C@@H](CCCCN)C(=O)N[C@@H](Cc1ccccc1)C(N)=O)[C@@H](C)O` [KWNSFIKKLTSKFLHSAKKF] was tested. Which MIC [7] did it give?
**A.** 5.13 µM (≈ 12.5 µg/mL)

**Q.** `CC(C)C[C@H](NC(=O)[C@H](CC(C)C)NC(=O)[C@H](CCCCN)NC(=O)[C@H](CCCCN)NC(=O)[C@H](CC(C)C)NC(=O)[C@H](CC(C)C)NC(=O)[C@H](CCCCN)NC(=O)[C@H](CC(C)C)NC(=O)[C@H](CC(C)C)NC(=O)[C@H](CCCCN)NC(=O)[C@H](CCCCN)NC(=O)[C@@H](N)CC(C)C)C(=O)N[C@@H](CCCCN)C(=O)N[C@@H](C)C(=O)N[C@@H](C)C(=O)NCC(=O)O` [LKKLLKLLKKLLKAAG] was tested. Which MIC [1] did it give?
**A.** 10 µM (≈ 17.8 µg/mL)

**Q.** What about the MIC [2] of the same compound?
**A.** 10 µM (≈ 17.8 µg/mL)

**Q.** With `CC[C@H](C)[C@H](NC(=O)[C@H](C)NC(=O)[C@H](CCCCN)NC(=O)[C@@H](N)CCC(N)=O)C(=O)N[C@@H](CCCN=C(N)N)C(=O)N[C@H](C(=O)N[C@@H](CCCN=C(N)N)C(=O)N[C@@H](CC(C)C)C(=O)N[C@@H](CO)C(=O)N[C@@H](C)C(=O)O)C(C)C` [QKAIRVRLSA] as the compound, how does the MIC [1] read?
**A.** 7.01 µM (≈ 8 µg/mL)

**Q.** And the MIC [3]?
**A.** 7.01 µM (≈ 8 µg/mL)

**Q.** What about the MIC [2] of the same compound?
**A.** > 56.1 µM

**Q.** Which results are given for `CC[C@H](C)[C@H](NC(=O)[C@H](CCCCN)NC(=O)[C@H](CCCCN)NC(=O)[C@@H](N)CCC(N)=O)C(=O)N[C@@H](CCCN=C(N)N)C(=O)N[C@@H](C)C(=O)N[C@@H](CCCN=C(N)N)C(=O)N[C@@H](CC(C)C)C(=O)N[C@@H](CO)C(=O)N[C@@H](C)C(=O)O` [QKKIRARLSA]?
**A.** MIC [1]: > 54.7 µM; MIC [3]: > 54.7 µM; MIC [2]: > 54.7 µM

**Q.** Which results are given for `CC[C@H](C)[C@H](NC(=O)[C@@H](NC(=O)[C@@H](NC(=O)[C@@H]1CCCN1C(=O)[C@H](Cc1c[nH]c2ccccc12)NC(=O)[C@H](Cc1ccccc1)NC(=O)[C@H](CCCN=C(N)N)NC(=O)[C@H](CCCCN)NC(=O)[C@@H](NC(=O)[C@@H](N)CCCN=C(N)N)[C@@H](C)CC)C(C)C)C(C)C)C(=O)N[C@@H](CCCN=C(N)N)C(=O)N[C@H](C(=O)N[C@H](C(=O)N[C@H](C(=O)N[C@@H](C)C(=O)NCC(=O)N[C@@H](Cc1ccc(O)cc1)C(=O)N[C@@H](CC(N)=O)C(=O)N[C@@H](CC(C)C)C(=O)N[C@@H](Cc1ccc(O)cc1)C(=O)N[C@@H](CCCN=C(N)N)C(=O)O)C(C)C)C(C)C)[C@@H](C)O` [RIKRFWPVVIRTVVAGYNLYR]?
**A.** MIC [1]: 3.6 µM (≈ 9.38 µg/mL); MIC [8]: 3.6 µM (≈ 9.38 µg/mL)

**Q.** Which results are given for `NC(=O)[C@H](Cc1ccccc1)NC(=O)[C@H](Cc1ccccc1)NC(=O)[C@H](Cc1ccccc1)NC(=O)[C@H](Cc1ccccc1)NC(=O)[C@@H]1CCCN1C(=O)[C@H](CCCN=C(N)N)NC(=O)[C@@H]1CCCN1C(=O)[C@H](CCCN=C(N)N)NC(=O)[C@@H]1CCCN1C(=O)[C@H](CCCN=C(N)N)NC(=O)[C@@H]1CCCN1C(=O)[C@H](CCCN=C(N)N)NC(=O)[C@@H](N)CCCN=C(N)N` [RRPRPRPRPFFFF]?
**A.** MIC [1]: 80 µM (≈ 142 µg/mL); MIC [3]: 40 µM (≈ 71 µg/mL); MIC [2]: 20 µM (≈ 35.5 µg/mL)

**Q.** For `CC(C)[C@H](NC(=O)[C@H](Cc1c[nH]c2ccccc12)NC(=O)[C@H](Cc1c[nH]c2ccccc12)NC(=O)[C@@H](N)CCCN=C(N)N)C(=O)N[C@@H](C)C(=O)N[C@@H](Cc1c[nH]c2ccccc12)C(=O)N[C@@H](CCCN=C(N)N)C(=O)N[C@@H](CC(N)=O)C(=O)N[C@@H](CCCN=C(N)N)C(=O)O` [RWWVAWRNR], which MIC [1] is on record?
**A.** 47 µM (≈ 62.5 µg/mL)

**Q.** And the MIC [2]?
**A.** 94 µM (≈ 125 µg/mL)

**Q.** How did the MIC [1] turn out when `CC[C@H](C)[C@H](NC(=O)[C@@H](NC(=O)[C@H](C)NC(=O)[C@H](CCCN=C(N)N)NC(=O)[C@H](CC(N)=O)NC(=O)[C@H](Cc1ccccc1)NC(=O)[C@H](CO)NC(=O)[C@@H](N)C(C)C)C(C)C)C(=O)N[C@@H](Cc1cnc[nH]1)C(=O)N[C@@H](CO)C(=O)N[C@@H](CC(C)C)C(=O)N[C@@H](CC(C)C)C(=O)NCC(N)=O` [VSFNRAVIHSLLG] was run?
**A.** > 496 µM

**Q.** And the MIC [2]?
**A.** > 496 µM
